Results as given in ChEMBL document CHEMBL5291721, “A preclinical secondary pharmacology resource illuminates target-adverse drug reaction associations of marketed drugs” (Nat Commun, 2023).

Key:
[1] = target: T1, Corticotropin-releasing factor receptor 2 (Homo sapiens, UniProt Q13324)
T1 sequence (Q13324 whole entry): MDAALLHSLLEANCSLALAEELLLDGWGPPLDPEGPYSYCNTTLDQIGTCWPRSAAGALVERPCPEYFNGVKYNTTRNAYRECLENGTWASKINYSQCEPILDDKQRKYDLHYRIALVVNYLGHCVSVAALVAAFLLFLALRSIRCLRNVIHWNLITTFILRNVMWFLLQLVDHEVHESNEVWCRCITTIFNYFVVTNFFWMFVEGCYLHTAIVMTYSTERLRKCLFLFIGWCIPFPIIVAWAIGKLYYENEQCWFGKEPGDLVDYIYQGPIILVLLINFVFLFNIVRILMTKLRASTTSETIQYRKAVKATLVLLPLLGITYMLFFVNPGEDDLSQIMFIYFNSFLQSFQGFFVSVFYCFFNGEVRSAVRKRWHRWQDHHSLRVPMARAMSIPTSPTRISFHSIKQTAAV

[2] = target: T2, Neuropeptide Y receptor type 2 (Homo sapiens, UniProt P49146)
T2 sequence (P49146 whole entry): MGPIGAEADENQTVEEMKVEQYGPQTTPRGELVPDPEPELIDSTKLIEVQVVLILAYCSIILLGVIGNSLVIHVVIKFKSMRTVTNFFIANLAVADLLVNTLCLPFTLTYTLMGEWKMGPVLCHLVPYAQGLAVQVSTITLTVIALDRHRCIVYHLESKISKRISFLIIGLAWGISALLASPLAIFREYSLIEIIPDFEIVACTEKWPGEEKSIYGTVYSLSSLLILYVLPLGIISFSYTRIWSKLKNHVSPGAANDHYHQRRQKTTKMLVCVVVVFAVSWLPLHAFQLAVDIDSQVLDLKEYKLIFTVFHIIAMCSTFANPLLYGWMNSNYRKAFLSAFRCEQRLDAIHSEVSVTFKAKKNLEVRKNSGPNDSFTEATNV

[3] = target: Voltage-dependent N-type calcium channel subunit alpha-1B (Rattus norvegicus, UniProt Q02294); type: functional
D(4) dopamine receptor = target: T3, D(4) dopamine receptor (Homo sapiens, UniProt P21917)
T3 sequence (P21917 whole entry): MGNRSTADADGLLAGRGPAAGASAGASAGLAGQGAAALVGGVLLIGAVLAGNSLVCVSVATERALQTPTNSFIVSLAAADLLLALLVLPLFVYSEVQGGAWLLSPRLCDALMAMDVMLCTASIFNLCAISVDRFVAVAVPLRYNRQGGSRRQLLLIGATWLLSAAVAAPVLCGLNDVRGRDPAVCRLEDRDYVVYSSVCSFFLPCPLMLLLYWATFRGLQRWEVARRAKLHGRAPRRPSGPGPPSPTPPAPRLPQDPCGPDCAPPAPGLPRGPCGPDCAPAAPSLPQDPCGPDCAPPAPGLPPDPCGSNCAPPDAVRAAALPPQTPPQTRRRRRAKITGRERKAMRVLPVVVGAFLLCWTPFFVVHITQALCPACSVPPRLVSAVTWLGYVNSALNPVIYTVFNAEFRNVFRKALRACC

Progesterone receptor = target: T4, Progesterone receptor (Homo sapiens, UniProt P06401)
T4 sequence (P06401 whole entry): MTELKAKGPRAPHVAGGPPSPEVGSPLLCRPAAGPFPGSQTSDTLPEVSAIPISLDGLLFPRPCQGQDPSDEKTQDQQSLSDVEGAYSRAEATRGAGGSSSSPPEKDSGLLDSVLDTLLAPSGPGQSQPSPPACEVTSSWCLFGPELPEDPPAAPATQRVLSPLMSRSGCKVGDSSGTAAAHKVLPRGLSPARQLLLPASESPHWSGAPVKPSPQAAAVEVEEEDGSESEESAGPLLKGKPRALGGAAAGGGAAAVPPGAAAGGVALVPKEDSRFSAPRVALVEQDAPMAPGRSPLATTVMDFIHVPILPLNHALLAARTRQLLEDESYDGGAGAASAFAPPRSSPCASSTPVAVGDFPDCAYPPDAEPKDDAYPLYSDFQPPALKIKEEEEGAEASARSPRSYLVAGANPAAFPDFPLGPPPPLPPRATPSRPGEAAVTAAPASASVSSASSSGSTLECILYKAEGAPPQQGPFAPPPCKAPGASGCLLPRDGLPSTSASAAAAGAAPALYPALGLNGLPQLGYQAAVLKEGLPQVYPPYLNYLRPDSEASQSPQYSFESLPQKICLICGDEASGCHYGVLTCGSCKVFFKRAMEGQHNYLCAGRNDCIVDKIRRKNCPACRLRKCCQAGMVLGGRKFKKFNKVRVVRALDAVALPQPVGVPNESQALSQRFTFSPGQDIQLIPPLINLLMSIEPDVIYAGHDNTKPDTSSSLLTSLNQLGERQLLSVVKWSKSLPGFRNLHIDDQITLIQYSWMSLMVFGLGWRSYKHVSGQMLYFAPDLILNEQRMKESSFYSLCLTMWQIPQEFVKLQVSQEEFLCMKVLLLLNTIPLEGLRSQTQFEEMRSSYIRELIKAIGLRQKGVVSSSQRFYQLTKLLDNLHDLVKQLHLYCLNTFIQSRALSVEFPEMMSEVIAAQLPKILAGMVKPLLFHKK

[4] = target: Gamma-aminobutyric acid receptor subunit alpha-1/alpha-2/beta-2/gamma-2 (Homo sapiens, UniProt P14867+P18507+P47869+P47870); type: functional, cell-based
Estrogen receptor = target: T5, Estrogen receptor (Homo sapiens, UniProt P03372)
T5 sequence (P03372 whole entry): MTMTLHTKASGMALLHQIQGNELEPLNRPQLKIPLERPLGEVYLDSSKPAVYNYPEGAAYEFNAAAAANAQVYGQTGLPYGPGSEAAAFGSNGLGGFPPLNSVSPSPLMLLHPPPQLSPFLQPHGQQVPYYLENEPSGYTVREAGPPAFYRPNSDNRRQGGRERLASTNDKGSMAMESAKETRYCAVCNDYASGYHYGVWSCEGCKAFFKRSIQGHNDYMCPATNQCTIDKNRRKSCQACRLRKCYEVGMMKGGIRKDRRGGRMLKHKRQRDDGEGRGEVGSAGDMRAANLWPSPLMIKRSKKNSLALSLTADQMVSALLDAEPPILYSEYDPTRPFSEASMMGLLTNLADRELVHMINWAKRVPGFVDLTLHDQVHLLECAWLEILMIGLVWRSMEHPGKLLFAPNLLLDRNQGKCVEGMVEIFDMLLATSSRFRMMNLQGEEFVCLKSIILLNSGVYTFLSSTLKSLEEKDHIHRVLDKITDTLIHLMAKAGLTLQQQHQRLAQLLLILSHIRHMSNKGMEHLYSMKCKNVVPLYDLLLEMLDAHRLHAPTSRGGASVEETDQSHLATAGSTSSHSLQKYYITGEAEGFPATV
Further: assay procedure not described here.

Voltage-dependent N-type calcium channel subunit alpha-1B, sequence (Q02294 whole entry): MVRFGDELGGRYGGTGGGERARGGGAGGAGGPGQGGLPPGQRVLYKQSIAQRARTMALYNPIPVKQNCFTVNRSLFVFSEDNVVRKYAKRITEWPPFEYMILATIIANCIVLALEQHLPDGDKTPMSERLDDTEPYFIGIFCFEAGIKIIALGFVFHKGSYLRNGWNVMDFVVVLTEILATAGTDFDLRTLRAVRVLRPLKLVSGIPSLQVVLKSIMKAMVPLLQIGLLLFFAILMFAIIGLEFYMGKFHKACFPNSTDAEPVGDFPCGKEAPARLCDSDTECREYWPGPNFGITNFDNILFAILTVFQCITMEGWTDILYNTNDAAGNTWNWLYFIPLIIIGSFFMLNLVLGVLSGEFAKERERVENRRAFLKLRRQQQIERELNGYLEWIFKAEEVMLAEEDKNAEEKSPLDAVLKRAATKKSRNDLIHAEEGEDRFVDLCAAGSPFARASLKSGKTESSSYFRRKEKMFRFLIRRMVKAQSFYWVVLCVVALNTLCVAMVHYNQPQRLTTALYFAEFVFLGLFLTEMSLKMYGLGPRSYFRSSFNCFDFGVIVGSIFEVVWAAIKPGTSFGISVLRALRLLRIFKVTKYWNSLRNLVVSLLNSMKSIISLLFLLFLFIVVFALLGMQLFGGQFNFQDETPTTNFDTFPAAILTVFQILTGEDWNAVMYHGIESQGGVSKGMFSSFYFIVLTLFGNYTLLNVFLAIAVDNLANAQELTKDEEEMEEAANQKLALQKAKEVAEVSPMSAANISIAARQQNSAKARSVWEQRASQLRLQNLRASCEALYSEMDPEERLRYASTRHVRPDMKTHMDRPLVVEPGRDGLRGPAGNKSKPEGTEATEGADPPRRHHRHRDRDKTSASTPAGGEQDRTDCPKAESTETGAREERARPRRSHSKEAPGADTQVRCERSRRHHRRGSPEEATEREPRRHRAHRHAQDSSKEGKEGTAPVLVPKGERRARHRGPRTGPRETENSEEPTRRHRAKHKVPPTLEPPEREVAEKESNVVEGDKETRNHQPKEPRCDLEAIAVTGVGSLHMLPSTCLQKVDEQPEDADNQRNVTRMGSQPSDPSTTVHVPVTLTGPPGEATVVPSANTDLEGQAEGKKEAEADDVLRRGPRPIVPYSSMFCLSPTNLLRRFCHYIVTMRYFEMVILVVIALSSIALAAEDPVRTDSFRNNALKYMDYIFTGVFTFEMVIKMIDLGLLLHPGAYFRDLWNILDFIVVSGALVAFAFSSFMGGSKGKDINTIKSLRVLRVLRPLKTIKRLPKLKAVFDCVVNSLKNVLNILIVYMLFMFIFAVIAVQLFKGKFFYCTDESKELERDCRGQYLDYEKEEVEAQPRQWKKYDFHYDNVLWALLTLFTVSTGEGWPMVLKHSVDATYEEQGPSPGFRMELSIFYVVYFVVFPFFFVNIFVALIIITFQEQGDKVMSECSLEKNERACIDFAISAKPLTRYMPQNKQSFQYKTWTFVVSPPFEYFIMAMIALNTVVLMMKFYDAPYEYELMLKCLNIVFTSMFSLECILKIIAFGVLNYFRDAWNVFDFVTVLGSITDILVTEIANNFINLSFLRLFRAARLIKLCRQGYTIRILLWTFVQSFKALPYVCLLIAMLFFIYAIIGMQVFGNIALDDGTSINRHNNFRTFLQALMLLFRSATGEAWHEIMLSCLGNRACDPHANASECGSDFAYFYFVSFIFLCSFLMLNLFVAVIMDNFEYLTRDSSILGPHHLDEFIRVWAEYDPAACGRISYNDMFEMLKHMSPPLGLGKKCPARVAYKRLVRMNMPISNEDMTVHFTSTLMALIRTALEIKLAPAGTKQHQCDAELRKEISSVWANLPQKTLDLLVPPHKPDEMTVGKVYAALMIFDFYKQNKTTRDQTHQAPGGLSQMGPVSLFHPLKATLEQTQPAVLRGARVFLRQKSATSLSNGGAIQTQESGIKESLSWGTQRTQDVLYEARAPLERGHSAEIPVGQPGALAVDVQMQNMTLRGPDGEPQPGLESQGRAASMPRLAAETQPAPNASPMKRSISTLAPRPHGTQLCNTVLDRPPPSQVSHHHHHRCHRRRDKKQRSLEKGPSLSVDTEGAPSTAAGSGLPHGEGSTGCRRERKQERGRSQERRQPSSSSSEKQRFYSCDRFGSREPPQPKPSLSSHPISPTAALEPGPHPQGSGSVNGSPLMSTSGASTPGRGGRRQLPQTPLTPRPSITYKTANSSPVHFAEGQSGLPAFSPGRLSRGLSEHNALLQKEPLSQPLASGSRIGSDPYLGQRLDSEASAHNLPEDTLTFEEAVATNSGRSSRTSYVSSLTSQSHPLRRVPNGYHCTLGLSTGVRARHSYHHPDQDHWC
Gamma-aminobutyric acid receptor subunit alpha-1/alpha-2/beta-2/gamma-2, sequence (P14867 whole entry): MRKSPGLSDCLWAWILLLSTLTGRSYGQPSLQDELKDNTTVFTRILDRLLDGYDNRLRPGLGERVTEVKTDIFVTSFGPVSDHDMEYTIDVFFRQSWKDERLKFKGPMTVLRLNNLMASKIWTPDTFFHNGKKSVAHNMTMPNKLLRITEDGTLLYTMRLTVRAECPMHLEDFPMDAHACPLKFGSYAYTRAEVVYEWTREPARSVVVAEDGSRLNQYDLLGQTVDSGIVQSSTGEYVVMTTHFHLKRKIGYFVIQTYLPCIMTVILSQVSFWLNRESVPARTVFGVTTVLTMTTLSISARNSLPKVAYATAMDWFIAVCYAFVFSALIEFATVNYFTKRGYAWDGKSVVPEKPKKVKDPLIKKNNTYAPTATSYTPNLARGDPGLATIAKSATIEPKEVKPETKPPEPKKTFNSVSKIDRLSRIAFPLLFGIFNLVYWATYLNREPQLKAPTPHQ
Gamma-aminobutyric acid receptor subunit alpha-1/alpha-2/beta-2/gamma-2, sequence (P47870 whole entry): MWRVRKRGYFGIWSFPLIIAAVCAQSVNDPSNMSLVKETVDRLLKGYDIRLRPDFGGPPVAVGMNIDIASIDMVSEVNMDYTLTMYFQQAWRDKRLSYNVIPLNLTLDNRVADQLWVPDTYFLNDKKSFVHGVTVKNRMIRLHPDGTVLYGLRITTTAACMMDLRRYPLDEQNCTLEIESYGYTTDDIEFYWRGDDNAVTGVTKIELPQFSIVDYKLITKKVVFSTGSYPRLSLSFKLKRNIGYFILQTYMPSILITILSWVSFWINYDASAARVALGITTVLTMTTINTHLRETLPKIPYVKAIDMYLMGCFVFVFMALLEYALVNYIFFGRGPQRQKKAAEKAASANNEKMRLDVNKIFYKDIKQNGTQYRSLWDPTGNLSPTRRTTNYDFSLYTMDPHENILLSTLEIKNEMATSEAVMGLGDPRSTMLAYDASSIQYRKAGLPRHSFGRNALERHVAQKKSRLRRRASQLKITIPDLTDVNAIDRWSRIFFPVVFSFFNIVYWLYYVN
Gamma-aminobutyric acid receptor subunit alpha-1/alpha-2/beta-2/gamma-2, sequence (P18507 whole entry): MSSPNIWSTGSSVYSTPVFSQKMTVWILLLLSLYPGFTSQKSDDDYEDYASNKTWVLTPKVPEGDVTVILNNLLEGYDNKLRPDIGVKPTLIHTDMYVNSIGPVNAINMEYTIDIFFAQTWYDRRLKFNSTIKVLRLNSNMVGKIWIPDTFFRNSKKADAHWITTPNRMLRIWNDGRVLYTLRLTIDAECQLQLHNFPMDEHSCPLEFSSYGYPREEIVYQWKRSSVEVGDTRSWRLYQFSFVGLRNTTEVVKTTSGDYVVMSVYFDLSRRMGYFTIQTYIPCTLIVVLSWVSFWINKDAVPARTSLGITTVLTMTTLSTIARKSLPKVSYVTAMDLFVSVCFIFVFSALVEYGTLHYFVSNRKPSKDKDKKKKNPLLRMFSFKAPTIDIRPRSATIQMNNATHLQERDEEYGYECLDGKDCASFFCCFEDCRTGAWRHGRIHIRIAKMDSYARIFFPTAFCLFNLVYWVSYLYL
Gamma-aminobutyric acid receptor subunit alpha-1/alpha-2/beta-2/gamma-2, sequence (P47869 whole entry): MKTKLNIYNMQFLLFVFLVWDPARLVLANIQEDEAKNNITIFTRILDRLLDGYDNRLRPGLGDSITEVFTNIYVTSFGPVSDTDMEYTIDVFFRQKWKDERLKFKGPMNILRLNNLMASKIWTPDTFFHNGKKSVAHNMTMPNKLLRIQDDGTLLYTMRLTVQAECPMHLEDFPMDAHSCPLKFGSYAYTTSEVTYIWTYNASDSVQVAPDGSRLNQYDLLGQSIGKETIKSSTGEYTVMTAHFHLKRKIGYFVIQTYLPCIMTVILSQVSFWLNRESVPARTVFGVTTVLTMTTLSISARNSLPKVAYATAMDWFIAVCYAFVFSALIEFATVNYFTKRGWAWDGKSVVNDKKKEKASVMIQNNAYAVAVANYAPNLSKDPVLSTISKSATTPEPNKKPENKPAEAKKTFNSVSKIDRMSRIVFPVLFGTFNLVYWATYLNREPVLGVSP

SMILES	AC50 [1] [µM]	AC50 [2] [µM]	AC50 [3] [µM]	AC50 (D(4) dopamine receptor) [µM]	AC50 (Progesterone receptor) [µM]	AC50 [4] [µM]	AC50 (Estrogen receptor) [µM]
CO[C@H]1/C=C/O[C@@]2(C)Oc3c(C)c(O)c4c(O)c(c(/C=N/N5CCN(C)CC5)c(O)c4c3C2=O)NC(=O)/C(C)=C\C=C\[C@H](C)[C@H](O)[C@@H](C)[C@@H](O)[C@@H](C)[C@H](OC(C)=O)[C@@H]1C [RIFAMPIN]	> 30	21.6	> 10	> 10	> 30		
N[C@@H](CC(=O)N1CCn2c(nnc2C(F)(F)F)C1)Cc1cc(F)c(F)cc1F [SITAGLIPTIN]		> 10	> 10	> 10		> 30	
CC(C)Cc1ccc(C(C)C(=O)O)cc1 (centres undefined) [IBUPROFEN]	> 30	> 30	> 10	> 10	> 30		> 30
COc1cc2nc(N3CCN(C(=O)C4CCCO4)CC3)nc(N)c2cc1OC (centres undefined) [TERAZOSIN]	> 30	> 30	> 10	> 10			> 30
Nc1ccc(S(=O)(=O)Nc2nccs2)cc1 [SULFATHIAZOLE]	> 30	> 30	> 10	> 10	> 30		
C=CC[C@@H]1/C=C(\C)C[C@H](C)C[C@H](OC)[C@H]2O[C@@](O)(C(=O)C(=O)N3CCCC[C@H]3C(=O)O[C@H](/C(C)=C/[C@@H]3CC[C@@H](O)[C@H](OC)C3)[C@H](C)[C@@H](O)CC1=O)[C@H](C)C[C@@H]2OC [TACROLIMUS ANHYDROUS]	> 30	> 30	> 10	> 10	> 30	> 30	
CN(C)CCc1c[nH]c2ccc(Cn3cncn3)cc12 [RIZATRIPTAN]	> 30	> 30	> 10	> 10	> 30	> 30	
Cc1onc(-c2ccccc2)c1-c1ccc(S(N)(=O)=O)cc1 [VALDECOXIB]	> 30	> 30	> 10	> 10	> 30		
CCCN(CCC)C(=O)Cc1c(-c2ccc(Cl)cc2)nc2ccc(Cl)cn12 [ALPIDEM]		> 10	> 10	> 10		> 10	> 30
C[C@H]1c2cccc(O)c2C(=O)C2=C(O)[C@]3(O)C(=O)C(C(N)=O)=C(O)[C@@H](N(C)C)[C@@H]3[C@@H](O)[C@@H]21 [DOXYCYCLINE]	> 30	> 30	> 10	> 10	> 30		
CCCC(CCC)C(=O)O [VALPROIC ACID]	> 30	> 30	> 10	> 10	> 30		> 30
COc1ccccc1OCCNCC(O)COc1cccc2[nH]c3ccccc3c12 (centres undefined) [CARVEDILOL]	> 30	> 30	> 10	0.0172	> 30		
CCN(CC)CCNC(=O)c1c(C)[nH]c(/C=C2\C(=O)Nc3ccc(F)cc32)c1C [SUNITINIB]				0.108			
